# Source: ChEMBL document CHEMBL1201862, “PubChem BioAssay data set” (2004)
# Calls of active or inactive are those of the source.
# What was measured:
# [1] = biological target: T1, Tyrosine-protein phosphatase non-receptor type 22 (Homo sapiens, UniProt Q9Y2R2); experiment: SAR LYP1 Fluorescent Assay using pCAP substrate for In Vitro dose response studies - Set 2. [Related pubchem assays (depositor defined):AID1779, AID1784, AID2135, AID449727]; type: functional
# T1 sequence (Q9Y2R2 whole entry): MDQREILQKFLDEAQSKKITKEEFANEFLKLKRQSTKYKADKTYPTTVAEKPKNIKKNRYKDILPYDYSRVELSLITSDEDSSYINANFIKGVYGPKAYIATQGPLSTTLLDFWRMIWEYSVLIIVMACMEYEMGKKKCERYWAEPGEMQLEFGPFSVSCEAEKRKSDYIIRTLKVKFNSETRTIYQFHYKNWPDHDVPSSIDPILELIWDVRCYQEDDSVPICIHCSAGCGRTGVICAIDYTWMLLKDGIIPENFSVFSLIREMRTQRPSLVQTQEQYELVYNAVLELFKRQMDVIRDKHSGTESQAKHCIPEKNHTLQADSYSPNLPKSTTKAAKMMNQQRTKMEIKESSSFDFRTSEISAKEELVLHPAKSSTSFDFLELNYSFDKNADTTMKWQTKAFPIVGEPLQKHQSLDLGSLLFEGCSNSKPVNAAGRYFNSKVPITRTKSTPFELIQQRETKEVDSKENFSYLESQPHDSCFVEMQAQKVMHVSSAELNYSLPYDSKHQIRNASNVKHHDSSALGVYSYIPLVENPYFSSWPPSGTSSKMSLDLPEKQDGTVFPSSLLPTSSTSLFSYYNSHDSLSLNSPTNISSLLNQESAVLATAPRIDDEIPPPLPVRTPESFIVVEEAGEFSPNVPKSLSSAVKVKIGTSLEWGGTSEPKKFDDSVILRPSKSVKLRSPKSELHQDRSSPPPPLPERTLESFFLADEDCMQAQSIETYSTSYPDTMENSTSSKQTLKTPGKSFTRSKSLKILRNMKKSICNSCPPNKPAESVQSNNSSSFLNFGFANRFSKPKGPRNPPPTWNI
# [2] = biological target: Tyrosine-protein phosphatase non-receptor type 12 (Homo sapiens, UniProt Q05209); experiment: SAR Selectivity Analysis of small molecule inhibitors of PEST using pCAP in a fluorescence assay. [Related pubchem assays (depositor defined):AID1779, AID1784, AID2135]; type: functional
# [3] = biological target: T1, Tyrosine-protein phosphatase non-receptor type 22; experiment: SAR LYP1 Fluorescent Assay using OMFP substrate for In Vitro dose response studies - Set 3. [Related pubchem assays (depositor defined):AID1779, AID1784, AID2140, AID2686]; type: functional
# [4] = biological target: T2, Tyrosine-protein phosphatase non-receptor type 7 (Homo sapiens, UniProt P35236); experiment: inhibition of hematopoietic tyrosine phosphatase HePTP – biochemical, set 2, SAR follow-up (AID 449736); type: functional
# T2 sequence (P35236 whole entry): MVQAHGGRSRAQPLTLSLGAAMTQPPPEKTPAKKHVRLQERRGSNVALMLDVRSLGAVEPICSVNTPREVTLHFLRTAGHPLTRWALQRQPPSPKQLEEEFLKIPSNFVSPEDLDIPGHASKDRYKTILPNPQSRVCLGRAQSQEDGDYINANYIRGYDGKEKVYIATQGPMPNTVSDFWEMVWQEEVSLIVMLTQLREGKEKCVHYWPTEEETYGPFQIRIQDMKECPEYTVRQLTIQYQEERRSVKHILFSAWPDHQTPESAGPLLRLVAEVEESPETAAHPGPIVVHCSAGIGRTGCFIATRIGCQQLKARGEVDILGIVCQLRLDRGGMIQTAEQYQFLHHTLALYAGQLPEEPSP
# [5] = biological target: T1, Tyrosine-protein phosphatase non-receptor type 22; experiment: inhibition of lymphoid tyrosine phosphatase LYP – biochemical, pCAP fluorogenic substrate, fluorescence, set 3, SAR follow-up (AID 449727); type: functional
# [6] = biological target: T1, Tyrosine-protein phosphatase non-receptor type 22; experiment: SAR LYP1 Fluorescent Assay using OMFP substrate for In Vitro dose response studies - Set 2. [Related pubchem assays (depositor defined):AID1779, AID1784, AID2140, AID449726, AID488869]; type: functional
# [7] = biological target: T2, Tyrosine-protein phosphatase non-receptor type 7; type: functional
# [8] = Trypanosoma cruzi growth suppression in host cells – NIH3T3 host cells, beta-gal luminescence, confirmation (AID 2044); type: functional, cell-based;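 further: intracellular parasites grown in NIH/3T3 mouse fibroblasts as host cells; luminescent beta-galactosidase reporter signal from transgenic T. cruzi replicating inside host cells; inhibitors lower the luminescence signal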
# [9] = NIH3T3 cell viability loss – ATP luminescence, mouse fibroblasts, counter-screen, dose response (AID 2010); type: functional, cell-based;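 further: cells exposed to compound for about 90 hours before reading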
# [10] = biological target: T1, Tyrosine-protein phosphatase non-receptor type 22; type: functional
# [11] = biological target: T1, Tyrosine-protein phosphatase non-receptor type 22; type: functional; remark: listed apart in the source
# [12] = biological target: T3, Delta-type opioid receptor (Homo sapiens, UniProt P41143); experiment: HTS Image-Based Screen for Antagonists of the DOR Receptor. [Related pubchem assays (depositor defined):AID1777, AID1785, AID1786, AID2133]; type: functional
# [13] = biological target: Mu-type opioid receptor (Homo sapiens, UniProt P35372); experiment: HTS Image-Based Screen for Agonists of the MOR Receptor. [Related pubchem assays (depositor defined):AID1777, AID1785, AID1786, AID2133]; type: functional;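 further: imaging of beta-arrestin GFP recruitment into spots after receptor activation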
# [14] = biological target: T3, Delta-type opioid receptor; experiment: HTS Image-Based Screen for Agonists of the DOR Receptor. [Related pubchem assays (depositor defined):AID1777, AID1786, AID2133]; type: functional
# [15] = biological target: T4, Kappa-type opioid receptor (Homo sapiens, UniProt P41145); type: functional
# [16] = biological target: Beta-galactosidase (Escherichia coli, UniProt Q8VNN2); type: functional
# [17] = biological target: T4, Kappa-type opioid receptor; type: functional; remark: listed apart in the source
# [18] = biological target: Intestinal-type alkaline phosphatase (Mus musculus, UniProt P24822); experiment: PubChem AID 488874; type: functional
# [19] = biological target: T5, Intestinal-type alkaline phosphatase (Homo sapiens, UniProt P09923); experiment: human intestinal alkaline phosphatase activators, dose response, biochemical, luminescence, uHTS hits (AID 463120); type: functional
# [20] = biological target: T5, Intestinal-type alkaline phosphatase; experiment: activation of human intestinal alkaline phosphatase – biochemical, luminescent, uHTS hits, set 2, dose response (AID 488817); type: functional;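 further: potency of activators that raise enzyme activity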
# [21] = biological target: T6, Alkaline phosphatase, tissue-nonspecific isozyme (Homo sapiens, UniProt P05186); experiment: activation of tissue-nonspecific alkaline phosphatase – biochemical, TNAP isozyme, human IAP uHTS hits, selectivity assay for human IAP activator project, dose response (AID 488886); type: functional;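 further: potency of compounds raising TNAP activity as a selectivity check on IAP activators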
# T6 sequence (P05186 whole entry): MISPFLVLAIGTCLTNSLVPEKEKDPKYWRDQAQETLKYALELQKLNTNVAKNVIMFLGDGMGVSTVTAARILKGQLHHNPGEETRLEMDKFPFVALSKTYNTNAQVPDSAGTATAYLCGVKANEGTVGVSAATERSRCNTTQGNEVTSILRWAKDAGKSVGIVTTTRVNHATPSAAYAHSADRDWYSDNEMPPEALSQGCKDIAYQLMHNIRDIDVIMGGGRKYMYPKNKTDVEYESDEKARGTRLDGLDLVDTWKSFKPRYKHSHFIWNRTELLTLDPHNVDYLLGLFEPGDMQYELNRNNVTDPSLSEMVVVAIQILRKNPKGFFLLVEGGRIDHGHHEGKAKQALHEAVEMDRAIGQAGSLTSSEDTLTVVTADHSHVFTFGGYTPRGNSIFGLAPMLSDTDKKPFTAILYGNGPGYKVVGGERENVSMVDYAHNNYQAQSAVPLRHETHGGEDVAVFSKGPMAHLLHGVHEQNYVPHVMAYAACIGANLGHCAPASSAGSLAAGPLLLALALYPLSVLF
# T4 sequence (P41145 whole entry): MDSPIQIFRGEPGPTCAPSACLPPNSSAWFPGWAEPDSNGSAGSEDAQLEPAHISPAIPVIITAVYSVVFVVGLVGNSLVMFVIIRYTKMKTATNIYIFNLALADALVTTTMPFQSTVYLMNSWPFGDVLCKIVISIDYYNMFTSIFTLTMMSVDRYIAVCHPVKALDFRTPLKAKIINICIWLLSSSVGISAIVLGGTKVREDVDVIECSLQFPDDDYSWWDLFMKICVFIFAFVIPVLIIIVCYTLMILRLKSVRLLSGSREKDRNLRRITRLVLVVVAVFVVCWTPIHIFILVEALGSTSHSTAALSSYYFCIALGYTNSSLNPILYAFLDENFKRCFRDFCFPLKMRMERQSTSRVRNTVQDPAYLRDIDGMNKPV
# T3 sequence (P41143 whole entry): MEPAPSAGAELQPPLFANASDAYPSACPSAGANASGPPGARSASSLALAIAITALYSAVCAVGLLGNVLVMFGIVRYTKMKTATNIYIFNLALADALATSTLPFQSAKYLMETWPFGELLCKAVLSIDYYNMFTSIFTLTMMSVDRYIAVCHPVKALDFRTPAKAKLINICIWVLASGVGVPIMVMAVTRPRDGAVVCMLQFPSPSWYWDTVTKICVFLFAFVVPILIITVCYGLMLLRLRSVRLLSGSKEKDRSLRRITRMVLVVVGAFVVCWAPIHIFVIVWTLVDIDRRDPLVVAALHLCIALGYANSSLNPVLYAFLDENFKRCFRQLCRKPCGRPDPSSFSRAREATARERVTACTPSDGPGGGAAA
# T5 sequence (P09923 whole entry): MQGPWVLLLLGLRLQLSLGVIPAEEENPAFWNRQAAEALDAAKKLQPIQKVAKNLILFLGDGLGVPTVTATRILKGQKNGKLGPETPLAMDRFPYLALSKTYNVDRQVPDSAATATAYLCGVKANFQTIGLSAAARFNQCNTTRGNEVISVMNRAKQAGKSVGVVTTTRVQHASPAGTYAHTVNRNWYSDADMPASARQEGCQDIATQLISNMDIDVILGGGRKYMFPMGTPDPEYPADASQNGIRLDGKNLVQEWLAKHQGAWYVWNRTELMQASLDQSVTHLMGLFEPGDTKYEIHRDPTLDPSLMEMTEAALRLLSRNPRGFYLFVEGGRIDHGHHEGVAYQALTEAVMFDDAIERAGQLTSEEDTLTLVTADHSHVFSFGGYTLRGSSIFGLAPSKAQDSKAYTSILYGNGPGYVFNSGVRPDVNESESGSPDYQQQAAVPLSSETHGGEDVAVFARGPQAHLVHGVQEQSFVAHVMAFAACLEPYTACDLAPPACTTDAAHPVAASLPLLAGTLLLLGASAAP
# Mu-type opioid receptor, sequence (P35372 whole entry): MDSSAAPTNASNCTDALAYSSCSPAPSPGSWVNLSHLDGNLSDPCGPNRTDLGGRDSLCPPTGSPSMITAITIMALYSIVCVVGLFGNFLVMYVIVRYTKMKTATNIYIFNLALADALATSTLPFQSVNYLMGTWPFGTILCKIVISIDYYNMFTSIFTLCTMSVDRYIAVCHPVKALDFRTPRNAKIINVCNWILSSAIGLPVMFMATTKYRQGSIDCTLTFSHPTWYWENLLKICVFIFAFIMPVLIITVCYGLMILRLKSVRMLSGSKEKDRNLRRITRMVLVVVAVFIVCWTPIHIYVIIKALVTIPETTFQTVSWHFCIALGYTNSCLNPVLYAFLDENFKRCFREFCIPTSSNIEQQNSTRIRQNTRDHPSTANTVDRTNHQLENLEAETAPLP
# Tyrosine-protein phosphatase non-receptor type 12, sequence (Q05209 whole entry): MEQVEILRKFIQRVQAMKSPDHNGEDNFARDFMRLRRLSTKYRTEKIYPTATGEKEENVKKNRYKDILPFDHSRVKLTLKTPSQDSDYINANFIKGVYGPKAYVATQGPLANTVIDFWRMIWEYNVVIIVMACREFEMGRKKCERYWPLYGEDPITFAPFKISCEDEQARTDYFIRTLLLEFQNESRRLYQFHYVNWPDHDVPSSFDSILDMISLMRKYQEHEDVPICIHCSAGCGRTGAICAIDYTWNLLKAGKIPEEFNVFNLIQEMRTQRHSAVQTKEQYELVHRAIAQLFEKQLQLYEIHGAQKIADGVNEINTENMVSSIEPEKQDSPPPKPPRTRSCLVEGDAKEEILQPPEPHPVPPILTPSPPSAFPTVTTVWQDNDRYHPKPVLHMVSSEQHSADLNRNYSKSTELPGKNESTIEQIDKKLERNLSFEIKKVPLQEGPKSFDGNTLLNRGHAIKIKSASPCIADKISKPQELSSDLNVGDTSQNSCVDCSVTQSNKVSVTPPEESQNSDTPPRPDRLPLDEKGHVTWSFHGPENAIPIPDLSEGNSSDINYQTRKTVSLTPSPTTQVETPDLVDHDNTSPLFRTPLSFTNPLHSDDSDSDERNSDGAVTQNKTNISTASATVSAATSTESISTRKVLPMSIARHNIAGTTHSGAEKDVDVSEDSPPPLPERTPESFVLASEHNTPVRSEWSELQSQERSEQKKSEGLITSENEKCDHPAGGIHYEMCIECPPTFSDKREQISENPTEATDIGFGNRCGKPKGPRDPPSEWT
# Beta-galactosidase, sequence (Q8VNN2 whole entry): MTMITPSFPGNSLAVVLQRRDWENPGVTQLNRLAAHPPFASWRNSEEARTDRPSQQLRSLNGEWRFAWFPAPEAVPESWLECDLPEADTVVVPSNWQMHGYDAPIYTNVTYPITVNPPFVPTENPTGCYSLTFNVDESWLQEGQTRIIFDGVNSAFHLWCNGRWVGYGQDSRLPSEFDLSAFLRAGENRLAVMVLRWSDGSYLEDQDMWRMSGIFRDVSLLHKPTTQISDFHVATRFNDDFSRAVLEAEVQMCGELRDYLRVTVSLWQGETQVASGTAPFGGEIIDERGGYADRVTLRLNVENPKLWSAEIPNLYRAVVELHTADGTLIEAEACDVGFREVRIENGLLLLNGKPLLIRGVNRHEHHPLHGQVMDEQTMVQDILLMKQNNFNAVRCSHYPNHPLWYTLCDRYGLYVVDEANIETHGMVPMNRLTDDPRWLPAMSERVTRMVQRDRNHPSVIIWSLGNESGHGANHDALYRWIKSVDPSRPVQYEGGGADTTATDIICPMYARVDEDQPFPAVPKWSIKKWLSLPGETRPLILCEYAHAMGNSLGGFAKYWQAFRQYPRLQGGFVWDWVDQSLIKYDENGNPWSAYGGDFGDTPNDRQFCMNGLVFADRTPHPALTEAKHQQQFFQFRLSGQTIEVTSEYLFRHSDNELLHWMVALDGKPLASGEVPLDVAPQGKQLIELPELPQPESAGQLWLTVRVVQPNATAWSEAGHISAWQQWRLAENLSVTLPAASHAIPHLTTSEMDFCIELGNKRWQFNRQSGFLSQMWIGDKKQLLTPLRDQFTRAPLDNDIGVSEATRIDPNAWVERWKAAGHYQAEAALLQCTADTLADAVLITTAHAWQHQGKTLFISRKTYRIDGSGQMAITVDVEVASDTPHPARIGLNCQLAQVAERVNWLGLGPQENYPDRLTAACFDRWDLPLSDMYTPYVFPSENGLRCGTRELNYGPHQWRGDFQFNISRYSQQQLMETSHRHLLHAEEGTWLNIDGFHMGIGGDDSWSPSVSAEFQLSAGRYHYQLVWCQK
# Intestinal-type alkaline phosphatase (Mus musculus, UniProt P24822), sequence (P24822 whole entry): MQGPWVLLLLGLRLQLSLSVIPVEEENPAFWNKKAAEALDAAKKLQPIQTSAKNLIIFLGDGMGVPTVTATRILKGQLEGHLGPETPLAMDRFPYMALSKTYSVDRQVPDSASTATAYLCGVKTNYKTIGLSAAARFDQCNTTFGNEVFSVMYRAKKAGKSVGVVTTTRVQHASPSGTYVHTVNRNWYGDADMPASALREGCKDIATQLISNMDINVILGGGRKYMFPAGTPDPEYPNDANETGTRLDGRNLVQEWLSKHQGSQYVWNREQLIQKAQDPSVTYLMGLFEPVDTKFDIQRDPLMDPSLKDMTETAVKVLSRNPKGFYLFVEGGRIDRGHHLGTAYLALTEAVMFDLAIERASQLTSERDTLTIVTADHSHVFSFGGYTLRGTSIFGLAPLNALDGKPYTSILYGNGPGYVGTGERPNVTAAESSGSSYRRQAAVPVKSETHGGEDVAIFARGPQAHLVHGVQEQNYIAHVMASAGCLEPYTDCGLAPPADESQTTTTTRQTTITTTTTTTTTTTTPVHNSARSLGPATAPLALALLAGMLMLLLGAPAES
structure (smiles),measurement,setting,value
O=C(O)COc1ccc(C=NNC(=O)c2ccccc2Br)cc1,IC50,[1],> 100 µM (inactive)
same,IC50,[2],66.3 µM (active)
same,IC50,[3],> 100 µM (inactive)
same,IC50,[4],> 100 µM (inactive)
same,IC50,[5],> 100 µM (inactive)
same,IC50,[6],> 100 µM (inactive)
CCCCOc1ccc(CN2CCCCC2)cc1,IC50,[7],> 79.4 µM (inactive)
same,EC50,[8],1.2 µM (active)
same,EC50,[9],> 30 µM (not active)
same,IC50,[10],> 79.4 µM (inactive)
same,IC50,[11],> 79.4 µM (inactive)
COc1ccc(-c2csc(Cc3nc(O)cs3)n2)cc1,IC50,[12],> 32 µM (inactive)
same,EC50,[13],> 32 µM (inactive)
same,EC50,[14],> 32 µM (inactive)
same,IC50,[15],7.92 µM (active)
same,EC50,[16],> 31.5 µM (inactive)
same,IC50,[17],> 32 µM
CCC(C)(C)C1CCc2n[nH]c(C(=O)N/N=C(\C)c3ccco3)c2C1 (stereo unspecified),IC50,[18],> 100 µM (inactive)
same,EC50,[19],8.06 µM (active)
same,EC50,[20],33 µM (active)
same,EC50,[21],34.9 µM (active)
